Results on 17 molecules are retold here after patent US6509359B1, “Pyrrolidin-2-one compounds and their use as neuraminidase inhibitors” (priority 1997, dated 2003).

For orientation: IC50 means the concentration needed to halve the response being measured. High values mean lower potency, low ones higher potency. By melting point is commonly meant the temperature, or range, at which the solid turns liquid.

Series [1] deals with influenza neuraminidase (N2) (Influenza A virus, UniProt P06820). Kind of series: biochemical. The class given is biochemical, influenza virus Type A.
Series [2] deals with Influenza NA Type B B/Lee (Influenza B virus, UniProt P03474). The experiment in a line: Inhibition of influenza neuraminidase (B/Lee). The class given is biochemical.
Series [3] addresses neuraminidase from the H1N9 strain of influenza (Influenza A virus, UniProt P03472). The experiment in a line: biochemical.
A short description of series [4]: Oral bioavailability. It counts as in vivo.
In series [5] the test system is HA. To be noted: cited from earlier work.
For series [6] the following is noted: cited from earlier work.

`CCC(CC)Nc1cc(C(=O)O)ccc1N1C(=O)CCC1(CO)CO` [Example 8, 1-[4-Carboxy-2-(3-pentylamino)phenyl]-5,5-bis-(hydroxymethyl)pyrrolidin-2-one]: the half-inhibitory concentration (IC50) is 0.071 µM in series [1], 93 µM in series [2] and 0.048 µM in series [3]. In addition, the Oral bioavailability result in series [4] is given as “orally bioavailable”.

As for `CCC(CC)Nc1cc(C(=O)O)ccc1N1C(=O)CCC1(CO)CCO` (stereo not shown) [Example 18, 1-[4-Carboxy-2-(1-ethylpropylamino)phenyl]-5-hydroxyethyl-5-hydroxymethyl-pyrrolidin-2-one], the IC50 in series [1] turned out to be 184 µM.

In turn, `CCCC(CC)Nc1cc(C(=O)O)ccc1N1C(=O)CCC1(CO)CO` (stereo not shown) [Example 9, 1-[4-Carboxy-2-(3-hexylamino)phenyl]-5,5-bis-(hydroxymethyl)pyrrolidin-2-one] had an IC50 in series [3] of 116 µM.

As to `CC(=O)N[C@H]1[C@H]([C@H](O)[C@H](O)CO)OC(C(=O)O)=C[C@@H]1O` [DANA, 2-deoxy-2,3-didehydro-N-acetylneuraminic acid], the Inhibition in vitro result in series [5] was “inhibit HA in vitro”. In addition, the Activity in vivo result in series [6] was “inactive in vivo”.

In turn, `O=C(O)c1ccc(N2C(=O)CCC2(CO)CO)cc1` [Example 5, 1-(4-Carboxyphenyl)-5,5-bis-(hydroxymethyl)pyrrolidin-2-one] came in with an IC50 in series [3] of 700 µM.

`CCC(CC)CNc1cc(C(=O)O)ccc1N1C(=O)CCC1(CO)CO` [Example 11, 1-{4-Carboxy-2-[3-pentyl)methylaminolphenyl}-5,5-bis-(hydroxymethyl)pyrrolidin-2-one.] yielded an IC50 in series [1] of 3.5 µM.

Regarding `CCC(=O)Nc1cc(C(=O)O)ccc1N1C(=O)CCC1(CO)CO` [Example 14, 1-[4-Carboxy-2-(ethylcarbonylamino)phenyl]-5,5-bis(hydroxymethyl)pyrrolidin-2-one], in series [1], inhibition was half-maximal at 1.5 µM (IC50).

`O=C(O)c1ccc(N2CCCC2=O)cc1` [Example 1, 1-(4-Carboxyphenyl)pyrrolidin-2-one] gave a melting point of 244 to 246 °C. The IC50 in series [3] is over 7000 µM.

In series [1], `CCC(CC)C(=O)Nc1cc(C(=O)O)ccc1N1C(=O)CCC1(CO)CO` [Example 16] displayed an IC50 of 0.82 µM.

In series [1], `CCCNc1cc(C(=O)O)ccc1N1C(=O)CCC1(CO)CO` [Example 12] showed a concentration for half-maximal inhibition (IC50) of 15.5 µM.

In series [1], `CCC(C)C(=O)Nc1cc(C(=O)O)ccc1N1C(=O)CCC1(CO)CO` (stereo not shown) [Example 15, 1-{[4-Carboxy-2-(1-methylpropyl)carbonylamino]pheny}-5,5-bis(hydroxymethyl)-pyrrolidin-2-one] showed a half-inhibitory concentration (IC50) of 0.18 µM.

In turn, `CCC(C)C(=O)Nc1cc(C(=O)O)ccc1N1C(=O)CCC1(CN)CO` (stereo not shown) [Example 17, 5-Aminomethyl-1-{[4-carboxy-2-(1-methylpropyl)carbonylamino]phenyl}-5-hydroxymethylpyrrolidin-2-one] displayed a concentration for half-maximal inhibition (IC50) in series [1] of 6 µM.

Consider `CCC(CC)Nc1cc(C(=O)O)ccc1N1C(=O)CCC1(CN)CO` (stereo not shown) [Compound B], for which, in series [1], the “Effectiveness relative to example 8 for the inhibition of influenza neuraminidase (N2)” value was “approximately twice as effective as example 8” and the 50% inhibitory concentration (IC50) was 0.04 µM. The molecule also displayed a half-maximal inhibitory concentration (IC50) in series [2] of 49 µM.

`CCCC(CCC)Nc1cc(C(=O)O)ccc1N1C(=O)CCC1(CO)CO` [Example 10, 1-[4-Carboxy-2-(4-heptylamino)phenyl]-5,5-bis-(hydroxymethyl)pyrrolidin-2-one]: the IC50 in series [1] is 8.1 µM; in series [3] it was 5.5 µM.

Turning to `NCC1CCC(=O)N1c1ccc(C(=O)O)cc1N=C(N)N` (stereo not shown) [Example 4, 1-1-{2-{[(Amino)(imino)methyl]amino}-4-carboxyphenyl}-5-(aminomethyl)pyrrolidin-2-one], inhibition in series [3] was half-maximal at 2600 µM (IC50).

Molecule `CCC(CC)Nc1cc(C(=O)O)ccc1N1CCCC1=O` [Example 7, 1-[4-Carboxy-2-(3-pentylamino)phenyl]pyrrolidin-2-one] returned a half-inhibitory concentration (IC50) in series [3] of 220 µM.

`N=C(N)Nc1cc(C(=O)O)ccc1N1C(=O)CCC1(CO)CO` [Example 6, 1-{2-{[(Amino)(imino)methyl]amino}-4-carboxyphenyl}-5,5-bis-(hydroxymethyl)-pyrrolidin-2-one] gave a half-maximal inhibitory concentration (IC50) in series [3] of 5 µM.
